Test results: PubChem BioAssay (NCI)
Several values for one entry are separate records, joined by “and”; a condition that tells them apart may be missing. Equal values may be shown once.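 Results reflect a 48-hour exposure of cells in 96-well plates to compound at five concentrations. At the GI50, growth is halved. The concentration for full growth arrest is given as TGI.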

Tests used:
Assay in all cases: NCI-60 cell line screen, 48 h
[1] = test system: UACC-257 melanoma
[2] = test system: NCI-H226 lung
[3] = test system: RXF 393 renal
[4] = test system: IGROV1 ovarian
[5] = test system: UACC-62 melanoma
[6] = test system: OVCAR-3 ovarian
[7] = test system: COLO 205 colon
[8] = test system: HOP-18 NSCLC
[9] = test system: SNB-78 CNS
[10] = test system: DMS 273 small cell lung

**Q.** What does the source list for `Cn1cc(-c2nc(-c3c[nH]c4ccncc34)cs2)c2cc(F)ccc21`?
**A.** GI50 [1]: 1.97 µM; TGI [1]: 3.56 µM; GI50 [2]: 1.92 µM; TGI [2]: 3.9 µM; GI50 [3]: 1.57 µM; TGI [3]: 3.04 µM; GI50 [4]: 1.86 µM; TGI [4]: 3.41 µM; GI50 [5]: 1.71 µM; TGI [5]: 3.18 µM; GI50 [6]: 1.94 µM; TGI [6]: 3.69 µM

**Q.** `C=CC[N+](CCO)(CCO)CCCCCCCCCCCCCCCCCC` was tested. Which TGI [1] did it give?
**A.** 17.2 µM

**Q.** And the TGI [2]?
**A.** 28.7 µM

**Q.** And the TGI [3]?
**A.** 5.24 µM

**Q.** And the TGI [7]?
**A.** 11 µM

**Q.** And the TGI [4]?
**A.** 3.78 µM

**Q.** And the TGI [8]?
**A.** 21.3 µM

**Q.** And the TGI [9]?
**A.** 12.6 µM

**Q.** What about the TGI [5] of the same compound?
**A.** 20.2 µM

**Q.** What about the TGI [6] of the same compound?
**A.** 27.1 µM

**Q.** What about the TGI [10] of the same compound?
**A.** 5.83 µM

**Q.** Which TGI [1] does the source give for `COc1ccc(/C(Cl)=C(\C=O)c2ccccc2)cc1OC` here?
**A.** > 100 µM

**Q.** And the TGI [2]?
**A.** 82.2 µM

**Q.** And the TGI [3]?
**A.** 69 µM

**Q.** What about the TGI [7] of the same compound?
**A.** 22.4 µM

**Q.** What about the TGI [4] of the same compound?
**A.** > 100 µM

**Q.** And the TGI [8]?
**A.** > 100 µM

**Q.** What about the TGI [9] of the same compound?
**A.** > 100 µM

**Q.** What about the TGI [5] of the same compound?
**A.** > 100 µM

**Q.** What about the TGI [6] of the same compound?
**A.** > 100 µM

**Q.** What about the TGI [10] of the same compound?
**A.** > 100 µM

**Q.** With `C=C1C(=O)O[C@@H]2OC3(C)CCC4C(C)CCC1C42OO3` (some centres undefined) as the compound, how does the TGI [1] read?
**A.** 14.1 µM and 12 µM

**Q.** What about the TGI [2] of the same compound?
**A.** 27.2 µM and 24.2 µM

**Q.** What about the GI50 [3] of the same compound?
**A.** 3.31 µM

**Q.** And the TGI [3]?
**A.** 9.65 µM

**Q.** And the GI50 [7]?
**A.** 3.99 µM

**Q.** And the TGI [7]?
**A.** 12.4 µM and 10.8 µM

**Q.** And the GI50 [4]?
**A.** 4.71 µM

**Q.** And the TGI [4]?
**A.** 16.7 µM and 12.7 µM

**Q.** What about the GI50 [8] of the same compound?
**A.** 20.1 µM

**Q.** What about the TGI [8] of the same compound?
**A.** 34.5 µM and 30.2 µM

**Q.** What about the GI50 [9] of the same compound?
**A.** 3.66 µM

**Q.** And the TGI [9]?
**A.** 19.8 µM

**Q.** And the TGI [5]?
**A.** 6.86 µM and 5.17 µM

**Q.** And the GI50 [6]?
**A.** 7.42 µM

**Q.** What about the TGI [6] of the same compound?
**A.** 19.6 µM and 10 µM

**Q.** What about the TGI [10] of the same compound?
**A.** 14.2 µM and 13.2 µM

**Q.** What does the source list for `N/C(=N\N=C\c1cc2c(cc1Cl)OCO2)NO`?
**A.** TGI [1]: > 100 µM; TGI [2]: > 93.7 µM; TGI [3]: > 100 µM; TGI [7]: > 100 µM; TGI [4]: > 100 µM; TGI [8]: > 100 µM; TGI [9]: > 100 µM; TGI [5]: > 84.1 µM; TGI [6]: > 24.6 µM; TGI [10]: > 77.8 µM

**Q.** Which results are given for `O=C1OC(c2ccc(Cl)cc2)(c2ccc(Cl)cc2)c2c1ccc1ccccc21`?
**A.** TGI [1]: > 100 µM; TGI [2]: > 100 µM; TGI [3]: > 100 µM; TGI [7]: > 100 µM; TGI [4]: > 100 µM; TGI [8]: > 100 µM; TGI [9]: > 100 µM; TGI [5]: > 100 µM; TGI [6]: > 100 µM; TGI [10]: > 100 µM

**Q.** How did the TGI [1] turn out when `C[C@H](CN1CC(=O)NC(=O)C1)N1CC(=O)NC(=O)C1` was run?
**A.** > 100 µM

**Q.** And the TGI [2]?
**A.** > 100 µM

**Q.** What about the TGI [3] of the same compound?
**A.** > 100 µM

**Q.** What about the TGI [7] of the same compound?
**A.** > 72.8 µM

**Q.** What about the TGI [4] of the same compound?
**A.** > 100 µM

**Q.** What about the TGI [8] of the same compound?
**A.** > 100 µM

**Q.** What about the TGI [9] of the same compound?
**A.** > 100 µM

**Q.** And the TGI [5]?
**A.** > 100 µM

**Q.** And the TGI [6]?
**A.** > 100 µM

**Q.** What about the TGI [10] of the same compound?
**A.** > 100 µM

**Q.** What does the source list for `Nc1nn(CC(O)CO)c(=O)s1` (centres undefined)?
**A.** TGI [1]: > 100 µM; TGI [2]: > 100 µM; TGI [3]: > 100 µM; TGI [7]: > 100 µM; TGI [4]: > 100 µM; TGI [8]: > 100 µM; TGI [5]: > 100 µM; TGI [6]: > 100 µM; TGI [10]: > 100 µM

**Q.** What does the source list for `CCOC(=O)C1=NN(c2ccc(Cl)cc2)C2=CC(C)=NN(C)C(=S)N21`?
**A.** TGI [1]: > 100 µM; TGI [3]: 47.3 µM; TGI [7]: > 100 µM; TGI [4]: > 100 µM; TGI [5]: > 100 µM; TGI [6]: > 100 µM

**Q.** What does the source list for `COc1ccc(/C=N/n2cnc3c(c2=O)S/C(=C2/SC(=S)N(c4ccc(C)cc4)C2=O)N3c2ccccc2)cc1`?
**A.** TGI [2]: > 100 µM; TGI [3]: 35.8 µM; TGI [7]: > 100 µM; TGI [4]: > 100 µM; TGI [5]: 51.9 µM; TGI [6]: 74.2 µM; TGI [10]: > 100 µM

**Q.** For `C[C@H](N)C(=O)N[C@@H]1[C@H]2C(=C(O)C[C@@H](O)[C@@H]2O)C(=O)O[C@@H]1C`, which TGI [1] is on record?
**A.** > 100 µM

**Q.** What about the TGI [2] of the same compound?
**A.** > 100 µM

**Q.** What about the TGI [3] of the same compound?
**A.** > 100 µM

**Q.** What about the TGI [7] of the same compound?
**A.** > 100 µM

**Q.** And the TGI [4]?
**A.** > 100 µM

**Q.** What about the TGI [8] of the same compound?
**A.** > 100 µM

**Q.** And the TGI [5]?
**A.** > 100 µM

**Q.** And the TGI [6]?
**A.** > 100 µM

**Q.** And the TGI [10]?
**A.** > 100 µM
